Starred links: 1 amine or outer side, 2 acyl side, 3 side chain; linkers in the order of their positions; H or OH if unused. Positions of bridges follow the written chain, without caps; N, C: chain ends. Non-standard residues stand in square brackets, D forms with d. Residues, ends and D or L forms follow the SMILES beside them. *: point of attachment. Glu(NHSO2Me) = CS(=O)(=O)NC(=O)CC[C@H](N)C(=O)O; NMePhe(3-Cl) = CN[C@@H](Cc1cccc(Cl)c1)C(=O)O; NMeW = CN[C@@H](Cc1c[nH]c2ccccc12)C(=O)O; NMeF = CN[C@@H](Cc1ccccc1)C(=O)O; NMeGABA = CN(CCCC(=O)[*:2])[*:1]; NMeI = CC[C@H](C)[C@H](NC)C(=O)O; NMeL = CN[C@@H](CC(C)C)C(=O)O; NMeV = CN[C@H](C(=O)O)C(C)C; NMeAbu = CC[C@H](NC)C(=O)O; NMeA = CN[C@@H](C)C(=O)O; Piperidide = C1CCN(*)CC1; NBuGly = CCCCNCC(=O)O; Sar = CNCC(=O)O; tBu = CC(C)(C)*
Experiment: Caco-2 membrane permeability, improved method as used in the following Examples (96-well, 20 to 24 h preincubation)
Format: in vitro ADME
Conditions: human
Description: In the following Examples, membrane permeability was measured in accordance with the improved method established as described above. Specifically, Caco-2 cells were cultured on a 96-well Transwell for three weeks, after which DMEM+FaSSIF (1% DMSO)+compound were added to the apical side and DMEM was added to the basal side, and the cells were preincubated at 5% CO2, 37° C., and 80 rpm for 20 to 24 hours. Following the preincubation, measurement of membrane permeability was initiated by removing the preincubation solution on the apical and basal sides by suction, washing the membrane, and adding FaSSIF/HBSS buffer (1% DMSO) (pH 6.0) containing the compound to the apical side and HBSS buffer (4% BSA) (pH 7.4) to the basal side. Each well was shaken at 5% CO2, 37° C., and 80 rpm, and 180 minutes after the initiation, the sample on the basal side was collected and the permeation amount was measured by LC/MS. The membrane permeability coefficient (Papp) was calculated from the permeation amount. Herein, the terms “Caco-2 (cm/sec)” in the columns in the tables and “Papp (cm/sec)” are used in the same meaning.

CCCCN1CC(=O)N(C)[C@@H](Cc2ccccc2)C(=O)N[C@@H](CCC(=O)NS(C)(=O)=O)C(=O)N(C)[C@@H](CC(C)C)C(=O)N[C@@H]([C@@H](C)O)C(=O)N(CCCC)CC(=O)N(C)[C@@H](Cc2ccccc2)C(=O)N(C)[C@@H](CC(C)C)C(=O)N[C@@H](CC(C)C)C(=O)N(C)[C@@H](CC(C)C)C(=O)N[C@H](C(=O)N2CCCCC2)CC1=O [pd65] ([NBuGly][NMeF][Glu(NHSO2Me)][NMeL]T[NBuGly][NMeF][NMeL]L[NMeL]D-Piperidide; lactam N-11)
Papp A→B at 180 min (Caco-2, Caco-2): 0.06 ×10⁻⁶ cm/s

CCCCN1CC(=O)N(C)[C@@H](Cc2cccc(Cl)c2)C(=O)N[C@@H](CCC(=O)NS(C)(=O)=O)C(=O)N(C)[C@@H](CC(C)C)C(=O)N[C@@H]([C@@H](C)O)C(=O)N(CCCC)CC(=O)N(C)[C@@H](Cc2ccccc2)C(=O)N(C)[C@@H](CC(C)C)C(=O)N[C@@H](CC(C)C)C(=O)N(C)[C@@H](CC(C)C)C(=O)N[C@H](C(=O)N2CCCCC2)CC1=O [pd66] ([NBuGly][NMePhe(3-Cl)][Glu(NHSO2Me)][NMeL]T[NBuGly][NMeF][NMeL]L[NMeL]D-Piperidide; lactam N-11)
Papp A→B at 180 min (Caco-2, Caco-2): 0.09 ×10⁻⁶ cm/s

CCCCN1CC(=O)N(C)[C@@H](CC(C)C)C(=O)N[C@@H](COC(C)(C)C)C(=O)N(C)[C@@H](Cc2ccccc2)C(=O)N(C)[C@@H](C(C)C)C(=O)N[C@H](C(=O)N2CCCCC2)CC(=O)N[C@H](C(C)C)C(=O)N(C)[C@@H](Cc2ccccc2)C(=O)N[C@@H](CCC(=O)NS(C)(=O)=O)C(=O)N(C)[C@@H](CC(C)C)C(=O)N[C@@H](CC(C)C)C1=O [pd67] ([dV][NMeF][Glu(NHSO2Me)][NMeL]L[NBuGly][NMeL]S(tBu)[NMeF][NMeV]D-Piperidide; lactam N-11)
Papp A→B at 180 min (Caco-2, Caco-2): 0.06 ×10⁻⁶ cm/s

CC(C)C[C@@H]1NC(=O)[C@H](CC(C)C)N(C)C(=O)CCCN(C)C(=O)C[C@@H](C(=O)N2CCCCC2)NC(=O)[C@H](CC(C)C)N(C)C(=O)[C@H](CC(C)C)N(C)C(=O)[C@H](CC(C)C)NC(=O)[C@H](CC(C)C)N(C)C(=O)[C@H](CCC(=O)NS(C)(=O)=O)NC(=O)[C@H](Cc2ccccc2)N(C)C(=O)[C@H](Cc2ccccc2)N(C)C1=O [pd68] ([NMeGABA][NMeL]L[NMeF][NMeF][Glu(NHSO2Me)][NMeL]L[NMeL][NMeL]D-Piperidide; lactam N-11)
Papp A→B at 180 min (Caco-2, Caco-2): 0.1 ×10⁻⁶ cm/s

CCCCN1CC(=O)N(C)[C@@H](C(C)C)C(=O)N[C@H](C(=O)N2CCCCC2)CC(=O)N(C)[C@@H](CC)C(=O)N[C@@H](CC(C)C)C(=O)N(C)[C@@H](CC(C)C)C(=O)N(C)[C@@H](Cc2ccccc2)C(=O)N[C@@H](CCC(=O)NS(C)(=O)=O)C(=O)N(C)[C@@H](Cc2ccccc2)C(=O)N(C)[C@@H](CC(C)C)C(=O)N[C@@H](CC(C)C)C1=O [pd69] ([NMeAbu]L[NMeL][NMeF][Glu(NHSO2Me)][NMeF][NMeL]L[NBuGly][NMeV]D-Piperidide; lactam N-11)
Papp A→B at 180 min (Caco-2, Caco-2): < 0.14 ×10⁻⁶ cm/s

CCCCN1CC(=O)N(C)[C@@H](Cc2ccccc2)C(=O)N[C@@H](CCC(=O)NS(C)(=O)=O)C(=O)N(C)[C@@H](CC(C)C)C(=O)N[C@@H](CC(C)C)C(=O)N(C)CC(=O)N(C)[C@@H](Cc2ccccc2)C(=O)N(C)[C@@H](CC(C)C)C(=O)N[C@@H](CC(C)C)C(=O)N(C)[C@@H](CC(C)C)C(=O)N[C@H](C(=O)N2CCCCC2)CC1=O [pd70] ([NBuGly][NMeF][Glu(NHSO2Me)][NMeL]L[Sar][NMeF][NMeL]L[NMeL]D-Piperidide; lactam N-11)
Papp A→B at 180 min (Caco-2, Caco-2): 0.17 ×10⁻⁶ cm/s

CC(C)C[C@@H]1NC(=O)[C@H](CC(C)C)N(C)C(=O)[C@H](C)N(C)C(=O)[C@@H](C(C)C)NC(=O)C[C@@H](C(=O)N2CCCCC2)NC(=O)[C@H]([C@@H](C)O)NC(=O)[C@H](C)N(C)C(=O)CN(C)C(=O)[C@H](CC(C)C)N(C)C(=O)[C@H](Cc2c[nH]c3ccccc23)NC(=O)[C@H](Cc2ccccc2)N(C)C1=O [pd100] ([dV][NMeA][NMeL]L[NMeF]W[NMeL][Sar][NMeA]TD-Piperidide; lactam N-11)
Papp A→B at 180 min (Caco-2, Caco-2 (cm/sec)): 0.11 ×10⁻⁶ cm/s

CC[C@H](C)[C@H]1C(=O)N[C@@H](Cc2c[nH]c3ccccc23)C(=O)N(C)CC(=O)N(C)[C@@H](C)C(=O)N[C@H](C(=O)N2CCCCC2)CC(=O)N(C)[C@@H](C)C(=O)N[C@@H](CC(C)C)C(=O)N(C)[C@@H](CC(C)C)C(=O)N(C)[C@@H](CC(C)C)C(=O)N[C@@H](C)C(=O)N(C)[C@@H](CC(C)C)C(=O)N1C [pd101] ([NMeA]L[NMeL][NMeL]A[NMeL][NMeI]W[Sar][NMeA]D-Piperidide; lactam N-11)
Papp A→B at 180 min (Caco-2, Caco-2 (cm/sec)): 0.13 ×10⁻⁶ cm/s

CC[C@H](C)[C@H]1C(=O)N[C@@H]([C@@H](C)O)C(=O)N(C)CC(=O)N(C)[C@@H](CC(C)C)C(=O)N[C@H](C(=O)N2CCCCC2)CC(=O)N(C)[C@@H](C)C(=O)N[C@@H](CC(C)C)C(=O)N(C)[C@@H](CC(C)C)C(=O)N(C)[C@@H](Cc2c[nH]c3ccccc23)C(=O)N[C@@H](C(C)C)C(=O)N(C)[C@@H](CC(C)C)C(=O)N1C [pd102] ([NMeA]L[NMeL][NMeW]V[NMeL][NMeI]T[Sar][NMeL]D-Piperidide; lactam N-11)
Papp A→B at 180 min (Caco-2, Caco-2 (cm/sec)): 1.1 ×10⁻⁶ cm/s
